Laboratory results published in patent publication US9994551B2, “Pyridazine derivatives as RORc modulators” (Genentech, Inc., priority 2015, dated 2018).

Molecular target: T1, RORc ligand binding domain (Homo sapiens, UniProt P51449)
T1 construct: host or cells: E. coli
T1 sequence (P51449 269-508 limits assumed): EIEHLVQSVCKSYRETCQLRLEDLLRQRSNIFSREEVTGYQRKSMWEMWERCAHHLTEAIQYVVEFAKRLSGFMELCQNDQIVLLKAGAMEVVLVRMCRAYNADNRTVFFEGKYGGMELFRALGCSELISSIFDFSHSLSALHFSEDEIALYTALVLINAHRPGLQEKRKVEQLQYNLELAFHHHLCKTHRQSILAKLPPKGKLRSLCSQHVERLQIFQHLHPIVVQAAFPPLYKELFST
Assay: In vitro RORc ligand binding assay (25-[3H]hydroxycholesterol displacement, filter binding)
Description: This assay was used to determine a compound's potency in inhibiting activity of RORc by determining, Kiapp, IC50, or percent inhibition values.
On day of the assay, 100 uL of 0.05% CHAPS (in deionized H2O) was added to all wells of the GFB Unifilter plate and allowed soak for 1 h. A wash buffer of 50 mM HEPES (pH 7.4), 150 mM NaCl, and 5 mM MgCl2 was prepared to wash the filter plate. To prepare an assay buffer, BSA was added to the wash buffer to reach 0.01% and DTT was added to reach 1 mM.
The 20× compound stocks were diluted in DMSO with Assay Buffer 4-fold to reach 5× the final test concentration in 25% DMSO (10 uL compound+30 uL Assay Buffer). Solutions were mixed by aspiration several times with a pipette set on 50 uL volume. For the assay, 10 uL of 5× compound stock solutions in 25% DMSO were added to the assay plate in duplicate.
For two point screening, 10 mM stock compound solutions were diluted in DMSO to obtain 200 uM (20× the high test concentration) and then diluted 10-fold further to reach 20 uM (20× the low test concentration). The 20× stocks were diluted 4-fold with Assay Buffer (10 uL compound+30 uL Assay Buffer) to reach 5× the test concentrations (50 uM and 5 uM) and 10 uL were added to two assay plates for the duplicate wells. With each concentration tested on 2 plates, each set of 80 compounds used 4 assay plates (1 uM and 10 uM, with n=2).
For 25-hydroxycholesterol in 25% DMSO/75% Assay Buffer; 10 uL per well was used for NSB samples. Wells for Total Binding and No Receptor sample determination contained 10 uL of 25% DMSO/75% Assay Buffer per well.
Add 20 uL to all wells to reach 6 nM final concentration in the assay.
Stock receptor solution was diluted in assay buffer to obtain 1.5 ug/mL in Assay Buffer. 20 uL was added to all wells. For No Receptor samples, 20 uL Assay Buffer was substituted for receptor solution.
Assay plates were 96-well polypropylene V-bottom plates. 10 uL of 5× compound in 25% DMSO/75% Assay Buffer was added to Test wells. 10 uL of 25% DMSO/75% Assay Buffer was added to Total Binding or No Receptor wells. 10 uL of 5 uM 25-hydroxycholesterol in 25% DMSO/75% Assay Buffer was added to NSB wells. […] 20 uL of 1.5 ug/mL RORc receptor was added to wells (or 40 uL Assay Buffer to No R wells). Following addition to the wells, the plates were incubated 3 h at 25° C.
Using a Packard Filtermate Harvester, the filter plate were washed 4 times following transfer of the incubated samples. Plates were dry-filtered completely (2 h at 50° C. or overnight at room temperature). 50 uL Microscint 0 was added to all wells and read on Topcount protocol Inverted.

| IC50 | Compound |
| --- | --- |
| 16 nM | Cc1n[nH]c(N2CCO[C@@H]([C@@]34CC[C@@H](c5cc(-c6c(F)cccc6F)nnc53)C4(C)C)C2)n1 (single isomer, unassigned) [Compound 147, 2-[5-(2,6-difluorophenyl)-11,11-dimethyl-3,4-diazatricyclo[6.2.1.02,7]undeca-2,4,6-trien-1-yl]-4-(3-methyl-1H-1,2,4-triazol-5-yl)morpholine] |
| 75.4 nM | CC[C@@H](O[C@@]12CC[C@@H](c3cc(-c4c(F)cccc4F)nnc31)C2(C)C)C(=O)NC[C@@H](O)CO [Compound 54, (R)-2-(((5S,8R)-3-(2,6-difluorophenyl)-9,9-dimethyl-5,6,7,8-tetrahydro-5,8-methanocinnolin-8-yl)oxy)-N-((R)-2,3-dihydroxypropyl)butanamide] |
| 101 nM | Cc1noc(N2CCO[C@@H]([C@@]34CC[C@@H](c5cc(-c6c(F)cccc6F)nnc53)C4(C)C)C2)n1 [Compound 91, (S)-2-((5R,8R)-3-(2,6-difluorophenyl)-9,9-dimethyl-5,6,7,8-tetrahydro-5,8-methanocinnolin-8-yl)-4-(3-methyl-1,2,4-oxadiazol-5-yl)morpholine] |
| 29 nM | CCNC(=O)N1CCC[C@H]([C@@]23CC[C@@H](c4cc(-c5c(F)cccc5F)nnc42)C3(C)C)C1 [Compound 136, 3-[5-(2,6-difluorophenyl)-11,11-dimethyl-3,4-diazatricyclo[6.2.1.02,7]undeca-2,4,6-trien-1-yl]-N-ethyl-piperidine-1-carboxamide] |
| 12 nM | CC[C@@H](O[C@@]12CC[C@@H](c3cc(-c4c(F)cccc4F)nnc31)C2(C)C)C(=O)OC [Compound 112, methyl (2R)-2-[[(1R,8S)-5-(2,6-difluorophenyl)-11,11-dimethyl-3,4-diazatricyclo[6.2.1.02,7]undeca-2,4,6-trien-1-yl]oxy]butanoate] |
| 8.2 nM | CC1(C)[C@H]2CC[C@]1([C@H]1CCCN(C(=O)NC3CCC3)C1)c1nnc(-c3c(F)cccc3F)cc12 [Compound 149, N-cyclobutyl-3-[5-(2,6-difluorophenyl)-11,11-dimethyl-3,4-diazatricyclo[6.2.1.02,7]undeca-2,4,6-trien-1-yl]piperidine-1-carboxamide] |
| 139 nM | CC(=O)N1CCC[C@H]([C@@]23CC[C@@H](c4cc(-c5c(F)cccc5F)nnc42)C3(C)C)C1 [Compound 98, 1-((R)-3-((5R,8R)-3-(2,6-difluorophenyl)-9,9-dimethyl-5,6,7,8-tetrahydro-5,8-methanocinnolin-8-yl)piperidin-1-yl)ethanone] |
| 95.2 nM | CC(C)(O)CNC(=O)CO[C@@]12CC[C@@H](c3cc(-c4c(F)cccc4F)nnc31)C2(C)C [Compound 48, 2-(((5S,8R)-3-(2,6-difluorophenyl)-9,9-dimethyl-5,6,7,8-tetrahydro-5,8-methanocinnolin-8-yl)oxy)-N-(2-hydroxy-2-methylpropyl)acetamide] |
| 20 nM | CC1(C)[C@H]2CC[C@]1([C@H]1CCCN(c3ccncn3)C1)c1nnc(-c3c(F)cccc3F)cc12 [Compound 164, 5-(2,6-difluorophenyl)-11,11-dimethyl-1-(1-pyrimidin-4-yl-3-piperidyl)-3,4-diazatricyclo[6.2.1.02,7]undeca-2,4,6-triene] |
| 7.6 nM | CC1(C)[C@H]2CC[C@]1([C@@H]1CN(C3=NC(CO)CO3)CCO1)c1nnc(-c3c(F)cccc3F)cc12 (stereo in doubt) [Compound 140, [2-[2-[5-(2,6-difluorophenyl)-11,11-dimethyl-3,4-diazatricyclo[6.2.1.02,7]undeca-2,4,6-trien-1-yl]morpholin-4-yl]-4,5-dihydrooxazol-4-yl]methanol] |
| 325 nM | CNC(=O)c1cnc(O[C@@]23CC[C@@H](c4cc(-c5c(F)cccc5F)nnc42)C3(C)C)cn1 [Compound 9, 5-(((5S,8R)-3-(2,6-difluorophenyl)-9,9-dimethyl-5,6,7,8-tetrahydro-5,8-methanocinnolin-8-yl)oxy)-N-methylpyrazine-2-carboxamide] |
| 133 nM | CC1(C)[C@H]2CC[C@]1(OCc1cnccn1)c1nnc(-c3c(F)cccc3F)cc12 [Compound 17, (5S,8R)-3-(2,6-difluorophenyl)-9,9-dimethyl-8-(pyrazin-2-ylmethoxy)-5,6,7,8-tetrahydro-5,8-methanocinnoline] |
| 5.7 nM | CC[C@@H](O[C@@]12CC[C@@H](c3cc(-c4c(F)cccc4F)nnc31)C2(C)C)c1nnc(CO)o1 [Compound 32, (5-((R)-1-(((5S,8R)-3-(2,6-difluorophenyl)-9,9-dimethyl-5,6,7,8-tetrahydro-5,8-methanocinnolin-8-yl)oxy)propyl)-1,3,4-oxadiazol-2-yl)methanol] |
| 4400 nM | CC1(C)[C@H]2CC[C@]1([C@@H]1CCCNC1=O)c1nnc(-c3c(F)cccc3F)cc12 [Compound 139, 3-[5-(2,6-difluorophenyl)-11,11-dimethyl-3,4-diazatricyclo[6.2.1.02,7]undeca-2,4,6-trien-1-yl]piperidin-2-one] |
| 14 nM | CC1(C)[C@H]2CC[C@]1([C@H]1CCCN(C(=O)c3cnccn3)C1)c1nnc(-c3c(F)cccc3F)cc12 [Compound 132, [3-[5-(2,6-difluorophenyl)-11,11-dimethyl-3,4-diazatricyclo[6.2.1.02,7]undeca-2,4,6-trien-1-yl]-1-piperidyl]-pyrazin-2-yl-methanone] |
| 277 nM | CC1(C)[C@H]2CC[C@]1([C@H]1CN(C(=O)C(O)CO)CCO1)c1nnc(-c3c(F)cccc3F)cc12 (stereo partly drawn) [Compound 76, 1-((S)-2-((5R,8R)-3-(2,6-difluorophenyl)-9,9-dimethyl-5,6,7,8-tetrahydro-5,8-methanocinnolin-8-yl)morpholino)-2,3-dihydroxypropan-1-one] |
| 116 nM | CC[C@@H](O[C@@]12CC[C@@H](c3cc(-c4c(F)cccc4F)nnc31)C2(C)C)C(=O)NC(CO)CO [Compound 53, (R)-2-(((5S,8R)-3-(2,6-difluorophenyl)-9,9-dimethyl-5,6,7,8-tetrahydro-5,8-methanocinnolin-8-yl)oxy)-N-(1,3-dihydroxypropan-2-yl)butanamide] |
| 136 nM | CC(C)(C)OC(=O)N1CCN[C@H]([C@@]23CC[C@@H](c4cc(-c5c(F)cccc5F)nnc42)C3(C)C)C1 [Compound 62, (R)-tert-butyl 3-((5R,8S)-3-(2,6-difluorophenyl)-9,9-dimethyl-5,6,7,8-tetrahydro-5,8-methanocinnolin-8-yl)piperazine-1-carboxylate] |
| 215 nM | CC1(C)[C@H]2CC[C@]1([C@H]1CCC(=O)NC1)c1nnc(-c3c(F)cccc3F)cc12 [Compound 92, (R)-5-((5R,8R)-3-(2,6-difluorophenyl)-9,9-dimethyl-5,6,7,8-tetrahydro-5,8-methanocinnolin-8-yl)piperidin-2-one] |
| 8.8 nM | CC1(C)[C@H]2CC[C@]1([C@@H]1CN(c3nc(CO)co3)CCO1)c1nnc(-c3c(F)cccc3F)cc12 [Compound 130, [2-[2-[5-(2,6-difluorophenyl)-11,11-dimethyl-3,4-diazatricyclo[6.2.1.02,7]undeca-2,4,6-trien-1-yl]morpholin-4-yl]oxazol-4-yl]methanol] |
| 68.9 nM | CC[C@@H](O[C@@]12CC[C@@H](c3cc(-c4c(F)cccc4F)nnc31)C2(C)C)C(=O)N1CC(C#N)C1 [Compound 37, 1-((R)-2-(((5S,8R)-3-(2,6-difluorophenyl)-9,9-dimethyl-5,6,7,8-tetrahydro-5,8-methanocinnolin-8-yl)oxy)butanoyl)azetidine-3-carbonitrile] |
| 18 nM | Cc1coc(N2CCO[C@@H]([C@@]34CC[C@@H](c5cc(-c6c(F)cccc6F)nnc53)C4(C)C)C2)n1 [Compound 145, 2-[5-(2,6-difluorophenyl)-11,11-dimethyl-3,4-diazatricyclo[6.2.1.02,7]undeca-2,4,6-trien-1-yl]-4-(4-methyloxazol-2-yl)morpholine] |
